Results as given in patent publication US10844354B2, “Cardiomyocyte maturation” (Ncardia B.V., priority 2014, dated 2020).

Tested on: stem-cell derived cardiomyocytes
Assay: Perforated patch clamp action potential measurement of spontaneously beating stem-cell derived cardiomyocytes
Format: cell-based, human
Details: induced pluripotent stem cell derived cardiomyocytes
Procedure: Differentiated (fetal-like/immature) human stem-cell derived cardiomyocytes were subsequently cultured and allowed to mature as described below, although any other method in the art may suitable be used. Tissue culture plastic was coated using Matrigel (Corning) at a concentration of 1/100 in DMEM, for 45 min at room temperature. A single cell suspension coming from dissociated embryoid bodies, dissociated monolayers or (commercially obtained) frozen (fetal-like (immature)) stem-cell derived cardiomyocytes were seeded at an appropriate density on matrigel coated tissue culture plastic (e.g. in 20-40 k cells per well of a 96-well plate, e.g. 20-200 k per well of a 12 well plate). On day 1 following plating, the foetal-like (immature) cardiomyocytes were exposed to a culture medium composition of the invention, which consists of a serum-free culture medium composition comprising 50 ng/ml of T3 (Sigma T6397), 2 mM of carnitine, 5 mM of creatine, 5 mM of taurine, 2.2 microgram/ml of cholesterol, 0.1 microgram/ml of linoleic acid, 0.1 microgram/ml of linolenic acid, 0.1 microgram/ml of palmitic acid (lipids, for example, from Gibco 11905), 10 mg/ml of insulin, 5.5 mg/ml of transferrin, 0.0067 mg/ml of selenium (insulin, transferrin and selenium from e.g. Gibco 51500), 0.01% of trace element mix B (as described herein; Cellgro 99-175-CL), 0.1% of trace element mix C (as described herein; Cellgro 99-176-CL), 0.5 w/w % of antibiotics (penicillin-streptomycin mixture commercially available Gibco (Gibco 12070; 5000 U/ML), 0.05 mg/ml ascorbic acid, 2 mM of Glutamax supplement (i.e. L-alanyl-L-glutamine dipeptide in 0.85% NaCl, commercially available at Gibco, e.g. Gibco 35050), 0.125 w/w % polyvinylalcohol (PVA), 450 nM of alpha monothiolglycerol (MTG) (commercially available), 025 w/w %/o BSA (Bovostar BSAS1.0) in 46.5% (w/w) IMDM (Gibco 21056) and 46.5% (w/w) HAM F-12 with glutamax (Gibco 31765). All concentrations are expressed as final concentration in the culture medium composition. This step was repeated every 2-3 days. In those experiments that also use thyroid hormone or a thyroid hormone analog, treatment with the culture medium composition as taught herein comprising e.g. T3 started either at day 1, day 3 or day 7 post plating.
At day 10 dbcAMP was added to a final concentration of 0.5 mM and the cell were further cultured. Action potential measurements of control and dbcAMP treated cells were performed using the patch clamp technique at 24, 48 and 72-hours post addition of the cAMP-raising compound.
Electrophysiology of the cells treated with the cAMP-raising compound or not was determined by standard techniques in the art, in particular with the method as described by for example, Bellin et al. (EMBO J. 2013; 32(24): 3161-3175), with the modification that in the examples provide herein spontaneous activity of the stem-cell derived cardiomyocytes was determined and no electric stimulation was required, although measurement may, as the skilled person knows, also be done under conditions of stimulation. Action potentials from small groups of cells (5-10 cells) were measured with the perforated patch clamp technique using an Axopatch 200b amplifier (Molecular Devices) and low resistance patch pipettes (1.5-2.5 MΩ). Data acquisition and analyses of action potentials were performed with pClamp 10 (axon instruments) and custom made software. Action Potentials were corrected for the calculated liquid junction potential (−15 mV).
Action potential from spontaneous beating cells were measured at 37±0.20 C using a modified Tyrode's solution containing (in mM): 140 NaCl, 5.4 KCl, 1.8 CaCl2, 1.0 MgCl2, 5.5 glucose, 5.0 HEPES; pH7.2 (NaOH).
The pipette solution contained (in mM): 125 K-gluconate, 20 KCl, 5 NaCl, 0.22 amphotericin-B, 10 HEPES; pH 7.2 (KOH). […]

SMILES: CCCC(=O)Nc1ncnc2c1ncn2[C@@H]1O[C@@H]2COP(=O)(O)O[C@H]2[C@H]1OC(=O)CCC [dbcAMP, N6,2′-O-dibutyryladenosine 3′,5′-cyclic monophosphate]
- upstroke velocity (0.5 mM dbcAMP for 24, 48 and 72 hrs vs non-treated, FIG. 1): improved the upstroke velocity dramatically
- resting membrane potential (liquid junction potential corrected) (0.5 mM dbcAMP for 24, 48 and 72 hrs vs non-treated, FIG. 2): improved the resting membrane potential dramatically
- representative action potentials (dbcAMP for 24, 48 and 72 hrs vs non-treated, FIG. 3): action potentials that are more adult cardiomyocyte like
- amplitude (dbcAMP for 24, 48 and 72 hrs vs non-treated, FIG. 4): improves the amplitude
- repolarization parameters (dbcAMP for 24, 48 and 72 hrs vs non-treated, FIG. 5): improves the repolarization parameters
- representative action potentials (dbcAMP for 72 hrs vs non-treated, FIG. 6): action potentials that are more adult cardiomyocyte like
